# Data published in US9422238B2, “ICMT inhibitors” (National University of Singapore, priority 2012, dated 2016).
# pIC50, pKi: −log10 of the molar value. Read-outs that look alike come from different tables or passages of the source.
# Tests used:
# HepG2 cells = assay: Western blot of autophagy marker LC3-II; assay type: cell-based, human; details: HepG2, 24 h and 48 h
# Method: (§1) MDA MB231, PC3 and HepG2 cells were seeded at 65 000 cells/mL per well in […] with DMEM (high glucose, supplemented with 10% FBS, 50 μg/mL penicillin, 50 μg/mL streptomycin) as media. Plates were incubated (24 h, 37° C., 5% CO2) for cells to attach and then treated with test compound (prepared in same media but with 5% FBS) for 24 h or 48 h. Final volume of DMSO per well was kept at 0.05% v/v. After the specified time, the supernatant was removed from the well by pipetting, the cell pellet was trypsinized, and pelleted by centrifugation (150 g, 5 min) and stored in −20° C. Samples were thawed and cells lysed by adding RIPA (radioimmunoprecipitation assay lysis buffer, Thermo Scientific, Rockland, Ill.) (50 μL), kept in ice for 30 min and sonicated for 1 min in an ice bath. Samples were centrifuged (13 000 g, 5 min, 4° C.) to remove cell debris. The supernatant was stored as aliquots at −80° C. and used when required. At the time of use, samples were thawed and protein content determined using the BCA® Protein Assay reagent (Thermo Scientific, Rockland, Ill.). The volume of the lysate was adjusted with deionized water to normalize protein content to 10-20 μg per mL. To this was added Laemmli buffer (4×) and heated to 100° C. for 5 minutes to denature the protein. The samples were resolved by 12% SDS-PAGE gel electrophoresis at 100V for 90 min. The resolved proteins were transferred to polyvinylidene difluoride (PVDF) membranes (Bio-Rad, Singapore) using transfer buffer at 100V for 120 min. Membranes were then treated with 5% blocking buffer (5% non-fat milk and 0.1% Tween-20 in PBS) and probed with the specific antibody (GAPDH, LC3) by incubating the membranes in blocking buffer containing the antibody at 4° C. overnight. After washing the membranes in PBS containing 0.1% Tween 20 (PBST), the membranes were probed with secondary antibodies (horseradish peroxidase anti mouse IgG, Pierce, USA) in blocking buffer at room temperature for 1 h. They were then washed with PBST and developed using an enhanced chemiluminescence procedure (Amersham ECL Advanced Western Blotting Detection Kit, GE, Healthcare, UK). Immunoblots were viewed using the ImageQuant® RT-ECL imager (GE Healthcare) and the image captured with the ImageQuant® TL software. Antibodies were obtained from the following sources: GAPDH (Cell signaling technology, USA), LC3 (Abgent, USA). Test compound was evaluated at 3 concentrations with 2 repeats for each concentration.
# PC3 cells [1] = assay: Western blot of autophagy marker LC3-II; assay type: cell-based, human; details: PC3, 24 h and 48 h
# Method: as §1
# MDA MB 231 cells = assay: Western blot of autophagy marker LC3-II; assay type: cell-based, human; details: MDA MB 231, 24 h and 48 h
# Method: as §1
# Icmt = Icmt (Homo sapiens, UniProt O60725); details: background, cited from earlier work
# Chain of Icmt (O60725 whole entry, species assumed): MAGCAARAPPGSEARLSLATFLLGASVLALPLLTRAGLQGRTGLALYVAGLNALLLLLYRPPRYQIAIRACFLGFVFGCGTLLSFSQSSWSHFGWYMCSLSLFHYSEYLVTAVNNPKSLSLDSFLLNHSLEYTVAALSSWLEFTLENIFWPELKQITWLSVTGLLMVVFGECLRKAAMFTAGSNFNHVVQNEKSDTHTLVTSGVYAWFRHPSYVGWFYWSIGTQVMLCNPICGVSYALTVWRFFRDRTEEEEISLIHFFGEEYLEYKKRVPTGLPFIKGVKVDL
# PC3 cells [2] = assay: Immunofluorescence analysis of LC3 aggregation; assay type: cell-based, human; details: PC3, 48 h
# Method: Cover slips were placed into the base of each well in a 24-well plate. PC3 cells were seeded at 10 000 cells/mL per well in media (DMEM Hi-glucose, 10% FBS, 50 μg/mL penicillin, 50 μg/mL streptomycin) and incubated for 24 h. After this time, cells were attached as a layer onto the exposed face of the cover slip. The media was carefully removed from the well without disrupting the cell layer on the cover slip. Test compound in DMEM (high glucose, 5% FBS) was added and incubated for 24 h or 48 h. DMSO concentration was kept at 0.05% per well, including control wells. At the end of the incubation period, media was removed, wells were washed thrice with PBS, followed by addition of chilled PBST (200 μL) per well for 10 minutes to permeabilize the cells. Cells were then fixed with 4% paraformaldehyde (300 μL), incubated for 15 minutes, and washed with cold PBS (3 times) to remove the fixing solution. To the cell layer fixed on the cover slip in the well was added 100 μL of anti-LC3 in PBST (1:1000). The plates were kept at 4° C. overnight after which each well was washed 3× with cold PBS. Rhodamine Red-X® secondary antibody (Jackson Immunoresearch Laboratories, West Grove, Pa.) was added, incubated (2 h, 25° C.) and removed by washing with PBS (3 times). The cover slips were carefully removed from the wells and mounted onto glass slides and sealed with nail polish. […]
# [3] = system: HepG2, MIA PACA II, MDA-MB-231 and PC3 cells; assay: Cell viability on panel of 4 malignant cell lines; assay type: cell-based; details: Homo sapiens, MDA-MB-231, PC3, read-out: IC50 values, range over the malignant cell lines
# Method: Determinations were made in duplicates or triplicates.
# Cell viability was determined from the expression:
# Human hepatocellular carcinoma HepG2 and human pancreatic cancer MIA PACA II cells were obtained from ATCC (Rockville, Md.). They were grown in DMEM (high glucose, Invitrogen) supplemented with 10% FBS, 50 μg/mL penicillin and 50 μg/mL streptomycin, 37° C., 5% CO2 until they reached 80-90% confluency, after which they were subcultured. Passage numbers were kept within 7-14 passages for both cell types.
Structure (SMILES),LC3-II content (immunoblot) (HepG2 cells),LC3-II content (immunoblot) (PC3 cells [1]),LC3-II content (immunoblot) (MDA MB 231 cells),pKi (Icmt; read-out: Ki of initial reversible complex with the enzyme),"pKi (Icmt; time dependent inhibition, read-out: overall dissociation constant of EI* complex)",LC3 aggregation (immunofluorescence) (PC3 cells [2]),pIC50 [3]
"CCCCCCCCn1cc(CC(N)=O)c2cc(-c3cccc(C)c3)ccc21 [Cysmethynil, 2-[5-(3-methylphenyl)-1-octyl-1H-indolo-3-yl]acetamide, reference compound]",LC3II accumulation was evident after 48 hours but not 24 h,negligible LC3II were observed,"LC3-II accumulation was evident in MDA MB 231 cells treated with cysmethynil at 20 and 22.5 μM, but not at 17.5 μM",5.62,6.96,,
"CCCCCCCCn1cc(CN(CC)CC)c2cc(-c3cnc(N)nc3)ccc21 [Compound 8-12, 5-(3-Diethylaminomethyl-1-octyl-1H-indol-5-yl)-pyrimidin-2-ylamine]",LC3-II bands were detected in HepG2 cells treated only with 0.5 μM but not 0.25 μM,increased the content of LC3-II,increased the content of LC3-II,,,punctate LC3-positive (red) vacuoles were observed at 2.5 and 5 μM,5.59 to 5.80
